Test system: MC38 mouse colon cancer allograft tumor model
Experiment: In vivo efficacy in the MC38 mouse colon cancer allograft tumor model
Details: 10 μg i.t.; for Tumor Volume, Day 0, Dosing side / Tumor Volume, Day 0, Non-dosing side: baseline at start of dosing; for Tumor Volume, Day 0, Dosing side / Tumor Volume, Day 0, Non-dosing side / Tumor Volume, Day 18, Dosing side / Tumor Volume, Day 18, Non-dosing side: mean ± SEM, n = 8; for Tumor Volume, Day 0, Dosing side / Tumor Volume, Day 0, Non-dosing side / Tumor Volume, Day 18, Dosing side / TGIvolume, Day 18, Dosing side: BIW×2; for Tumor Volume, Day 18, Non-dosing side / TGIvolume, Day 18, Non-dosing side: BIW×2 on the other side; for TGIvolume, Day 18, Dosing side / TGIvolume, Day 18, Non-dosing side: tumor volume inhibitory rate
Protocol: In this experimental example, the changes in tumor volume and tumor weight of an MC38 mouse colon cancer transplanted tumor model were measured and recorded after intratumoral injection (i.t.) of compound 6 or compound 8, so as to test the efficacy of each test compound.
Experimental cell strain: Mouse colon cancer MC38 cells (Nanjing Cobioer) were cultured in a 37° C., 5% CO2 incubator (medium: RPMI-1640 (Hyclone) containing 10% fetal bovine serum (Gibco)). Trypsin-EDTA (Hyclone) was used for routine digestion and passage. When the cells were in the exponential phase with a saturation of […], the cells were collected and counted.
Experimental animals: C57BL/6J mice, 6-8 weeks old, female, weighing 18-20 grams. All mice were purchased from Beijing Vital River Laboratory Animal Technology Co., Ltd., and kept in a special pathogen-free (SPF) animal room.
The MC38 cells were resuspended in phosphate buffered saline (PBS) at a density of 5×10^6 cells/mL. 0.1 mL of PBS (containing 5×10^5 MC38 cells) was inoculated subcutaneously at the position of scapula at the right and left back of each mouse. When the average volume of the tumors at the left and right sides reached about 100 mm^3, the mice were randomly grouped according to the volumes of the tumors at the left and right sides.
When the average volume of the subcutaneously transplanted tumors reached about 100 mm^3, the mice were randomly grouped according to the volume of the tumors at the left and right sides, with 8 in each group. Administration was performed on the tumors at the right side via intratumoral injection at an administration frequency of BIW×2 for 2 weeks in total, while no administration was performed on the tumors at the left side. After administration, the volumes of tumors at the left and right sides were measured twice a week, and the death of the animals was observed every day.
The anti-tumor efficacy of the test compound was evaluated by the tumor volume inhibitory rate TGIvolume (%). The tumor volume was measured with a vernier caliper. The tumor volume is calculated according to the formula: V=0.5×a×b^2, wherein “a” and “b” represent the long diameter and short diameter of the tumor, respectively. The tumor volume inhibitory rate TGIvolume (%)=[(1−(the average tumor volume at the end of dosing to a dosing group−the average tumor volume at the start of dosing to the dosing group)/(the average tumor volume at the end of dosing to a vehicle control group−the average tumor volume at the start of dosing to the vehicle control group)]×100%. When the tumor volume at the end of dosing was smaller than the tumor volume at the start of dosing (i.e., tumor regression), TGIvolume (%)=[1−(the average tumor volume at the end of dosing to a dosing group−average the tumor volume at the start of dosing to the dosing group)/the average tumor volume at the start of dosing to the dosing group]×100%.
A statistical analysis was performed based on the tumor volume at the end of the experiment using the Graphpad Prism software. A comparison between the two groups was analyzed by Student's t-test. When P<0.05, it was considered as having a significant difference.

COc1cc2sc(C(=O)CCC(=O)O)cc2cc1OCCCOc1cc2sc(C(=O)N(C)CCC(=O)O)cc2cc1OC [Compound 6, 4-(5-(3-((2-((2-carboxyethyl)(methyl)carbamoyl)-5-methoxybenzo[b]thiophen-6-yl)oxy)propoxy)-6-methoxybenzo[b]thiophen-2-yl)-4-oxobutanoic acid]
Tumor Volume, Day 0, Dosing side: 112.09 ± 11.95 mm^3
Tumor Volume, Day 0, Non-dosing side: 96.07 ± 10.17 mm^3
Tumor Volume, Day 18, Dosing side: 105.10 ± 74.74 mm^3
Tumor Volume, Day 18, Non-dosing side: 760.69 ± 174.22 mm^3
TGIvolume, Day 18, Dosing side: 106.24%
TGIvolume, Day 18, Non-dosing side: 51.09%

COc1cc2sc(C(=O)CCC(=O)O)cc2cc1OCCCOc1cc2cc(C(=O)N(C)CCC(=O)O)sc2cc1OC [Compound 8, 4-(5-(3-((2-((2-carboxyethyl)(methyl)carbamoyl)-6-methoxybenzo[b]thiophen-5-yl)oxy)propoxy)-6-methoxybenzo[b]thiophen-2-yl)-4-oxobutanoic Acid]
Tumor Volume, Day 0, Dosing side: 113.24 ± 12.33 mm^3
Tumor Volume, Day 0, Non-dosing side: 96.60 ± 11.50 mm^3
Tumor Volume, Day 18, Dosing side: 0.00 ± 0.00 mm^3
Tumor Volume, Day 18, Non-dosing side: 666.08 ± 100.92 mm^3
TGIvolume, Day 18, Dosing side: 200.00%
TGIvolume, Day 18, Non-dosing side: 58.09%
